Square brackets hold non-standard residues; d marks the D form. Peptide text beside a SMILES is read from it. * marks the point of attachment. pY = N[C@@H](Cc1ccc(OP(=O)(O)O)cc1)C(=O)O; Hydrocinnamoyl = O=C(CCc1ccccc1)*; Ac6c = NC1(C(=O)O)CCCCC1; Cbz = O=C(OCc1ccccc1)*
Target: T1, Growth factor receptor-bound protein 2 (Homo sapiens, UniProt P62993)
Assay: Binding affinity to Grb2 SH2 domain (unknown origin) by isothermal titration calorimetry
Target sequence in this assay (P62993 whole entry, looked up, the tested form may be a part): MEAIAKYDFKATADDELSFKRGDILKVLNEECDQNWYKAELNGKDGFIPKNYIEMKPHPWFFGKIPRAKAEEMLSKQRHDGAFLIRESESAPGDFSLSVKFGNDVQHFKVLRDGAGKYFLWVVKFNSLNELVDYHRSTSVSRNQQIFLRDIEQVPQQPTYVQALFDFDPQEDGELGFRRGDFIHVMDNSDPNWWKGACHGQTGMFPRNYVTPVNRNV

Row | Compound | Ka [×10⁶ /M]
1 | NC(=O)C[C@H](NC(=O)C1(NC(=O)[C@H](Cc2ccc(OP(=O)(O)O)cc2)NC(=O)OCc2cccc(N)c2)CCCCC1)C(N)=O | 8.8
2 | CC(=O)N[C@@H](Cc1ccc(OP(=O)(O)O)cc1)C(=O)NC1(C(=O)N[C@@H](CC(N)=O)C(N)=O)CCCCC1 (HELM PEPTIDE1{[ac].[O=C([C@H](Cc1ccc(OP(=O)(O)O)cc1)N[*:1])[*:2]].[O=C(C1(N[*:1])CCCCC1)[*:2]].N.[am]}$$$$V2.0) | 7
3 | NC(=O)C[C@H](NC(=O)C1(NC(=O)[C@H](Cc2ccc(OP(=O)(O)O)cc2)NC(=O)CCC2CCCCC2)CCCCC1)C(N)=O | 28.8
4 | Cn1cc(CCC(=O)N[C@@H](Cc2ccc(OP(=O)(O)O)cc2)C(=O)NC2(C(=O)N[C@@H](CC(N)=O)C(N)=O)CCCCC2)c2ccccc21 | 11.4
5 | NC(=O)C[C@H](NC(=O)C1(NC(=O)[C@H](Cc2ccc(OP(=O)(O)O)cc2)NC(=O)OCc2ccccc2)CCCCC1)C(N)=O (Cbz-[pY]-[Ac6c]-Asn-NH2) | 6.5
6 | NC(=O)C[C@H](NC(=O)C1(NC(=O)[C@H](Cc2ccc(OP(=O)(O)O)cc2)NC(=O)CCc2ccccc2)CCCCC1)C(N)=O (Hydrocinnamoyl-[pY]-[Ac6c]-Asn-NH2) | 23.4

Target: T1, Growth factor receptor-bound protein 2
Assay: Binding affinity to Grb2 SH2 domain (60 to 151) (unknown origin) expressed in Escherichia coli BL21(DE3) after overnight incubation by ELISA
Target sequence in this assay (P62993 whole entry, the tested form may be a part): as the sequence (P62993 whole entry, looked up, the tested form may be a part) above

Row | Compound | IC50 [nM]
7 | C[C@](NC(=O)[C@H](Cc1ccc(OP(=O)(O)O)cc1)NC(=O)OCc1cccc(N)c1)(C(=O)N[C@@H](CC(N)=O)C(N)=O)c1ccc(OP(=O)(O)O)cc1 | 13

— ChEMBL document CHEMBL3297721, “Protein-ligand interactions: probing the energetics of a putative cation-π interaction” (Bioorg Med Chem Lett, 2014)
